Reference: PubChem BioAssay (NCI)
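A five-concentration, 48-hour dose response in 96-well plates underlies each endpoint, interpolated linearly between surrounding concentrations. Definition used: TGI = concentration required for complete inhibition of growth.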

Legend:
Assay in all cases: NCI tumour cell line growth inhibition, 48 h
786-0 renal = tested on: 786-0 renal
A498 renal = tested on: A498 renal
A549 NSCLC = tested on: A549 NSCLC
ACHN renal = tested on: ACHN renal
CAKI-1 renal = tested on: CAKI-1 renal
CCRF-CEM leukemia = tested on: CCRF-CEM leukemia
COLO 205 colon = tested on: COLO 205 colon
DMS 114 small cell lung = tested on: DMS 114 small cell lung
DMS 273 small cell lung = tested on: DMS 273 small cell lung
EKVX NSCLC = tested on: EKVX NSCLC
HCC-2998 colon = tested on: HCC-2998 colon
HCT-116 colon = tested on: HCT-116 colon
HCT-15 colon = tested on: HCT-15 colon
HL-60(TB) leukemia = tested on: HL-60(TB) leukemia
HOP-18 NSCLC = tested on: HOP-18 NSCLC
HOP-62 NSCLC = tested on: HOP-62 NSCLC
IGROV1 ovarian = tested on: IGROV1 ovarian
K-562 leukemia = tested on: K-562 leukemia
KM12 colon = tested on: KM12 colon
KM20L2 colon = tested on: KM20L2 colon
LXFL 529 NSCLC = tested on: LXFL 529 NSCLC
M14 melanoma = tested on: M14 melanoma
M19-MEL melanoma = tested on: M19-MEL melanoma
MALME-3M melanoma = tested on: MALME-3M melanoma
MOLT-4 leukemia = tested on: MOLT-4 leukemia
NCI-H226 lung = tested on: NCI-H226 lung
NCI-H460 lung = tested on: NCI-H460 lung
NCI-H522 lung = tested on: NCI-H522 lung
OVCAR-3 ovarian = tested on: OVCAR-3 ovarian
OVCAR-4 ovarian = tested on: OVCAR-4 ovarian
OVCAR-8 ovarian = tested on: OVCAR-8 ovarian
RPMI-8226 leukemia = tested on: RPMI-8226 leukemia
RXF 393 renal = tested on: RXF 393 renal
RXF-631 renal = tested on: RXF-631 renal
SF-268 CNS = tested on: SF-268 CNS
SF-539 CNS = tested on: SF-539 CNS
SK-MEL-2 melanoma = tested on: SK-MEL-2 melanoma
SK-MEL-28 melanoma = tested on: SK-MEL-28 melanoma
SK-MEL-5 melanoma = tested on: SK-MEL-5 melanoma
SK-OV-3 ovarian = tested on: SK-OV-3 ovarian
SN12C renal = tested on: SN12C renal
SNB-19 CNS = tested on: SNB-19 CNS
SNB-75 CNS = tested on: SNB-75 CNS
SNB-78 CNS = tested on: SNB-78 CNS
SR leukemia = tested on: SR leukemia
SW-620 colon = tested on: SW-620 colon
TK-10 renal = tested on: TK-10 renal
U251 CNS = tested on: U251 CNS
UACC-257 melanoma = tested on: UACC-257 melanoma
UACC-62 melanoma = tested on: UACC-62 melanoma
UO-31 renal = tested on: UO-31 renal
DLD-1 colon = tested on: DLD-1 colon
HOP-92 NSCLC = tested on: HOP-92 NSCLC
HT29 colon = tested on: HT29 colon
LOX IMVI melanoma = tested on: LOX IMVI melanoma
NCI-H23 lung = tested on: NCI-H23 lung
OVCAR-5 ovarian = tested on: OVCAR-5 ovarian
SF-295 CNS = tested on: SF-295 CNS

Measured: TGI

CC(C)[C@@H](C)CC[C@@H](C)C1CC=C2[C@@H]3CCC4C[C@@H](O[Si](C)(C)C(C)(C)C)CC[C@]4(C)C3CC[C@@]21C (stereo partly specified)
> 100 µM: 786-0 renal | A498 renal | A549 NSCLC | ACHN renal | CAKI-1 renal | CCRF-CEM leukemia | COLO 205 colon | DMS 114 small cell lung | DMS 273 small cell lung | EKVX NSCLC | HCC-2998 colon | HCT-116 colon | HCT-15 colon | HL-60(TB) leukemia | HOP-18 NSCLC | HOP-62 NSCLC | IGROV1 ovarian | K-562 leukemia | KM12 colon | KM20L2 colon | LXFL 529 NSCLC | M14 melanoma | M19-MEL melanoma | MALME-3M melanoma | MOLT-4 leukemia | NCI-H226 lung | NCI-H460 lung | NCI-H522 lung | OVCAR-3 ovarian | OVCAR-4 ovarian | OVCAR-8 ovarian | RPMI-8226 leukemia | RXF 393 renal | RXF-631 renal | SF-268 CNS | SF-539 CNS | SK-MEL-2 melanoma | SK-MEL-28 melanoma | SK-MEL-5 melanoma | SK-OV-3 ovarian | SN12C renal | SNB-19 CNS | SNB-75 CNS | SNB-78 CNS | SR leukemia | SW-620 colon | TK-10 renal | U251 CNS | UACC-257 melanoma | UACC-62 melanoma | UO-31 renal

Cn1ccnc1CCc1ccc(Cl)cc1Cl
> 100 µM: 786-0 renal | A498 renal | A549 NSCLC | ACHN renal | CAKI-1 renal | CCRF-CEM leukemia | COLO 205 colon | DLD-1 colon | DMS 114 small cell lung | DMS 273 small cell lung | EKVX NSCLC | HCC-2998 colon | HCT-116 colon | HCT-15 colon | HL-60(TB) leukemia | HOP-18 NSCLC | HOP-62 NSCLC | HOP-92 NSCLC | HT29 colon | IGROV1 ovarian | K-562 leukemia | KM12 colon | KM20L2 colon | LOX IMVI melanoma | LXFL 529 NSCLC | M14 melanoma | M19-MEL melanoma | MALME-3M melanoma | MOLT-4 leukemia | NCI-H226 lung | NCI-H23 lung | NCI-H460 lung | NCI-H522 lung | OVCAR-3 ovarian | OVCAR-4 ovarian | OVCAR-5 ovarian | OVCAR-8 ovarian | RPMI-8226 leukemia | RXF 393 renal | RXF-631 renal | SF-268 CNS | SF-295 CNS | SF-539 CNS | SK-MEL-2 melanoma | SK-MEL-28 melanoma | SK-OV-3 ovarian | SN12C renal | SNB-19 CNS | SNB-75 CNS | SNB-78 CNS | SW-620 colon | TK-10 renal | U251 CNS | UACC-257 melanoma | UACC-62 melanoma | UO-31 renal

Nc1ncnc2c1ncn2C1OC(CSC(F)F)C(O)C1O (stereo unspecified)
> 100 µM: 786-0 renal | A498 renal | A549 NSCLC | ACHN renal | CAKI-1 renal | CCRF-CEM leukemia | COLO 205 colon | DLD-1 colon | DMS 114 small cell lung | DMS 273 small cell lung | EKVX NSCLC | HCC-2998 colon | HCT-116 colon | HCT-15 colon | HL-60(TB) leukemia | HOP-18 NSCLC | HOP-62 NSCLC | HOP-92 NSCLC | HT29 colon | IGROV1 ovarian | K-562 leukemia | KM12 colon | KM20L2 colon | LOX IMVI melanoma | LXFL 529 NSCLC | M14 melanoma | MALME-3M melanoma | MOLT-4 leukemia | NCI-H226 lung | NCI-H23 lung | NCI-H460 lung | NCI-H522 lung | OVCAR-3 ovarian | OVCAR-4 ovarian | OVCAR-5 ovarian | OVCAR-8 ovarian | RPMI-8226 leukemia | RXF-631 renal | SF-268 CNS | SF-295 CNS | SF-539 CNS | SK-MEL-2 melanoma | SK-MEL-28 melanoma | SK-MEL-5 melanoma | SK-OV-3 ovarian | SN12C renal | SNB-75 CNS | SNB-78 CNS | SW-620 colon | TK-10 renal | U251 CNS | UACC-257 melanoma | UACC-62 melanoma | UO-31 renal
